Structures can show the parent of a compound that is named as a salt.
biological target: T1, MAPKAPK2 enzyme (HIS-MK2, Invitrogen PV4019) (Homo sapiens, UniProt P49137); assay: Alternative MAPKAPK2 assay (Caliper microfluidic mobility shift, HSP27-peptide); assay type: biochemical; conditions: HIS-MK2 0.013 nM, ATP 10 μM, 60 min at 30° C.
T1 construct: His; purchased Invitrogen PV4019
T1 sequence (P49137 whole entry): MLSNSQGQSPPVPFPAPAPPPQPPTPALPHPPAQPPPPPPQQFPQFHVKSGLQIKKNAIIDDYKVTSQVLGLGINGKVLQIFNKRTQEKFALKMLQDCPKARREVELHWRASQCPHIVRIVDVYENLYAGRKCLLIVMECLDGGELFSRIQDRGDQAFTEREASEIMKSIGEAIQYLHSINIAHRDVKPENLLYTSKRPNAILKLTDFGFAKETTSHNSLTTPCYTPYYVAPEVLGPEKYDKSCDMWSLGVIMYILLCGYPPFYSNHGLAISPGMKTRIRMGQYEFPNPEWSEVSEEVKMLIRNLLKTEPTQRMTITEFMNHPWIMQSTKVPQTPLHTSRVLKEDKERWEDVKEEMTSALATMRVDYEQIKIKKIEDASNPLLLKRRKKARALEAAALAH

| IC50 [µM] | SMILES |
| --- | --- |
| 0.072 | O=C1NC2(CCC2)Cc2[nH]c3c(c21)CCc1cnc(-c2ccc(OCCN4CCOCC4)cc2)cc1-3 [Example 231, 2-(1-Amino-cyclobutylmethyl)-8-[4-(2-morpholin-4-yl-ethoxy)-phenyl]-4,5-dihydro-1H-pyrrolo[2,3-f]isoquinoline-3-carboxylic acid lactam] |
| 0.048 | Cn1c2c(c3c1-c1nc(-c4cccc(Br)c4)ncc1CC3)C(=O)NC1(CNC1)C2 [Example 286, 2-(3-Amino-azetidin-3-ylmethyl)-8-(3-bromo-phenyl)-1-methyl-4,5-dihydro-1H-1,7,9-triaza-cyclopenta[a]naphthalene-3-carboxylic acid lactam hydrochloride] |
| 0.011 | O=C1NC2(CC2)Cc2[nH]c3c(c21)CCc1cnc(-c2ccc(CO)nc2)cc1-3 [Example 240, 2-(1-Amino-cyclopropylmethyl)-8-(6-hydroxymethyl-pyridin-3-yl)-4,5-dihydro-1H-pyrrolo[2,3-f]isoquinoline-3-carboxylic acid lactam] |
| 0.068 | COc1ccc(-c2cc3c(cn2)CCc2c-3[nH]c3c2C(=O)NC2(CC2)C3)cc1F [Example 238, 2-(1-Amino-cyclopropylmethyl)-8-(3-fluoro-4-methoxy-phenyl)-4,5-dihydro-1H-pyrrolo[2,3-f]isoquinoline-3-carboxylic acid lactam] |
| 0.008 | CCN1CC2(C1)c1[nH]c3c(c1C(=O)NC21CC1)CCc1cnc(-c2cnc(OC)c(F)c2)cc1-3 [Example 252, 2-[3-(1-Amino-cyclopropyl)-1-ethyl-azetidin-3-yl]-8-(5-fluoro-6-methoxy-pyridin-3-yl)-4,5-dihydro-1H-pyrrolo[2,3-f]isoquinoline-3-carboxylic acid lactam] |
| < 0.003 | CN1CC2(C1)c1[nH]c3c(c1C(=O)NC21CC1)CCc1cnc(-c2cccc(Cl)c2)cc1-3 [Example 224, 2-[3-(1-Amino-cyclopropyl)-1-methyl-azetidin-3-yl]-8-(3-chlorophenyl)-4,5-dihydro-1H-pyrrolo[2,3-f]isoquinoline-3-carboxylic acid lactam] |
| 0.003 | CCN1CC2(C1)c1[nH]c3c(c1C(=O)NC21CC1)CCc1cnc(-c2ccc(OC)nc2)cc1-3 [Example 251, 2-[3-(1-Amino-cyclopropyl)-1-ethyl-azetidin-3-yl]-8-(6-methoxy-pyridin-3-yl)-4,5-dihydro-1H-pyrrolo[2,3-f]isoquinoline-3-carboxylic acid lactam] |
| > 0.01 | O=C1NC2(CC2)Cc2[nH]c3c(c21)CCc1cnc(Oc2ccc(F)cc2F)nc1-3 [Example 266, 2-(1-Amino-cyclopropylmethyl)-8-(2,4-difluoro-phenoxy)-4,5-dihydro-1H-1,7,9-triaza-cyclopenta[a]naphthalene-3-carboxylic acid lactam] |
| 0.086 | O=C(NCc1ccccc1)c1cncc(-c2ncc3c(n2)-c2[nH]c4c(c2CC3)C(=O)NCC42CC2)c1 [Example 290, N-Benzyl-5-(10-spirocyclopropyl-7-oxo-6,7,8,9,10,11-hexahydro-5H-1,3,8,11-tetraaza-benzo[a]fluoren-2-yl)-nicotinamide] |
| 0.009 | N#Cc1cc(-c2cc3c(cn2)CCc2c-3[nH]c3c2C(=O)NCC32CC2)ccc1N1CCN(CCO)CC1 [Example 315, 2-[4-(2-Hydroxy-ethyl)-piperazin-1-yl]-10-spirocyclopropyl-5-(7-oxo-6,7,8,9,10,11-hexahydro-5H-3,8,11-triaza-benzo[a]fluoren-2-yl)-benzonitrile] |
| 0.08 | O=C1NC2(CC2)Cc2[nH]c3c(c21)CCc1cnc(-c2ccc(CCCN4CC(O)C4)cc2)cc1-3 [Example 248, 2-(1-Amino-cyclopropylmethyl)-8-{4-[3-(3-hydroxy-azetidin-1-yl)-propyl]-phenyl}-4,5-dihydro-1H-pyrrolo[2,3-f]isoquinoline-3-carboxylic acid lactam] |
| 0.1 | O=C1NC2(CC2)Cc2[nH]c3c(c21)CCc1cnc(-c2ccc(CCCN4CCOCC4)cc2)cc1-3 [Example 246, 2-(1-Amino-cyclopropylmethyl)-8-[4-(3-morpholin-4-yl-propyl)-phenyl]-4,5-dihydro-1H-pyrrolo[2,3-f]isoquinoline-3-carboxylic acid lactam] |
| 0.007 | O=C1NC2(CNC2)Cc2[nH]c3c(c21)CCc1cnc(-c2cccc(Br)c2)nc1-3 [Example 285, 2-(3-Amino-azetidin-3-ylmethyl)-8-(3-bromo-phenyl)-4,5-dihydro-1H-1,7,9-triaza-cyclopenta[a]naphthalene-3-carboxylic acid lactam hydrochloride] |

Continued, compound first:

| SMILES | IC50 [µM] |
| --- | --- |
| COc1ccc(-c2ncc3c(n2)-c2[nH]c4c(c2CC3)C(=O)NC2(CC2)C42CNC2)cc1 [Example 214, 2-[3-(1-Amino-cyclopropyl)-azetidin-3-yl]-8-(4-methoxy-phenyl)-4,5-dihydro-1H-1,7,9-triaza-cyclopenta[a]naphthalene-3-carboxylic acid lactam hydrochloride] | 0.006 |
| COc1ccc(-c2ncc3c(n2)-c2[nH]c4c(c2CC3)C(=O)NCC42CNC2)cc1 [Example 206, 2-(3-Aminomethyl-azetidin-3-yl)-8-(4-methoxy-phenyl)-4,5-dihydro-1H-1,7,9-triaza-cyclopenta[a]naphthalene-3-carboxylic acid lactam hydrochloride] | < 0.003 |
| CN1CCN(c2ccc(-c3cc4c(cn3)CCc3c-4[nH]c4c3C(=O)NC3(CC3)C4)cc2)CC1 [Example 217, 2-(1-Amino-cyclopropylmethyl)-8-(4-methyl-piperazin-1-yl-phenyl)-4,5-dihydro-1H-pyrrolo[2,3-f]isoquinoline-3-carboxylic acid lactam] | 0.093 |
| O=C1NCC2(CNC2)c2[nH]c3c(c21)CCc1cnc(-c2ccc(F)nc2F)cc1-3 [Example 205, 2-(3-Aminomethyl-azetidin-3-yl)-8-(2,6-difluoro-pyridin-3-yl)-4,5-dihydro-1H-pyrrolo[2,3-f]isoquinoline-3-carboxylic acid lactam hydrochloride] | < 0.003 |
| CC(=O)OCc1ccc(-c2cc3c(cn2)CCc2c-3[nH]c3c2C(=O)NC2(CC2)C3)cn1 [Example 244, 8-(6-Acetoxymethyl-pyridin-3-yl)-2-(1-amino-cyclopropylmethyl)-4,5-dihydro-1H-pyrrolo[2,3-f]isoquinoline-3-carboxylic acid lactam] | 0.043 |
| CC(C)Oc1ccc(-c2cc3c(cn2)CCc2c-3[nH]c3c2C(=O)NCC32CNC2)cn1 [Example 186, 2-(3-Aminomethyl-azetidin-3-yl)-8-(6-isopropoxy-pyridin-3-yl)-4,5-dihydro-1H-pyrrolo[2,3-f]isoquinoline-3-carboxylic acid lactam hydrochloride] | < 0.003 |
| CN1CC2(C1)c1[nH]c3c(c1C(=O)NC21CC1)CCc1cnc(-c2cccc(F)c2)cc1-3 [Example 208, 2-[3-(1-Amino-cyclopropyl)-1-methyl-azetidin-3-yl]-8-(3-fluoro-phenyl)-4,5-dihydro-1H-pyrrolo[2,3-f]isoquinoline-3-carboxylic acid lactam] | < 0.003 |
| COc1ccc(-c2cc3c(cn2)CCc2c-3oc3c2C(=O)NC2(CNC2)C3)cc1 [Example 41, 2-(3-Amino-azetidin-3-ylmethyl)-8-(4-methoxy-phenyl)-4,5-dihydro-furo[2,3-f]isoquinoline-3-carboxylic acid lactam hydrochloride] | 0.021 |
| O=C1NC2(CC2)C2(CNC2)c2[nH]c3c(c21)CCc1cnc(-c2cccc(F)c2)nc1-3 [Example 212, 2-[3-(1-Amino-cyclopropyl)-azetidin-3-yl]-8-(3-fluoro-phenyl)-4,5-dihydro-1H-1,7,9-triaza-cyclopenta[a]naphthalene-3-carboxylic acid lactam hydrochloride] | 0.005 |
| O=C1NC2(CC2)Cc2[nH]c3c(c21)CCc1cnc(-c2ccc4c(c2)OCCO4)cc1-3 [Example 66, 2-(1-Amino-cyclopropylmethyl)-8-(2,3-dihydro-benzo[1,4]dioxin-6-yl)-4,5-dihydro-1H-pyrrolo[2,3-f]isoquinoline-3-carboxylic acid lactam] | 0.06 |
| CN1CC2(CNC(=O)c3c4c(n(C)c32)-c2nc(-c3cccc(F)c3)ncc2CC4)C1 [Example 204, 2-(3-Aminomethyl-1-methyl-azetidin-3-yl)-8-(3-fluoro-phenyl)-1-methyl-4,5-dihydro-1H-1,7,9-triaza-cyclopenta[a]naphthalene-3-carboxylic acid lactam] | 0.022 |
| COc1ccc(-c2cc3c(cn2)CCc2c4c(n(C)c2-3)C2(CNC2)CNC4=O)cc1 [Example 163, 2-(3-Aminomethyl-azetidin-3-yl)-8-(4-methoxy-phenyl)-1-methyl-4,5-dihydro-1H-pyrrolo[2,3-f]isoquinoline-3-carboxylic acid lactam hydrochloride] | 0.006 |
| Cc1ccc(-c2cc3c(cn2)CCc2c-3[nH]c3c2C(=O)NC2(CC2)C32CC2)cn1 [Example 193, 2-(1′-Amino-bicyclopropyl-1-yl)-8-(6-methyl-pyridin-3-yl)-4,5-dihydro-1H-pyrrolo[2,3-f]isoquinoline-3-carboxylic acid lactam] | 0.012 |
| O=C1NCC2(CC2)c2[nH]c3c(c21)CCc1cnc(-c2cncc(F)c2)cc1-3 [Example 112, 2-(1-Aminomethyl-cyclopropyl)-8-(5-fluoro-pyridin-3-yl)-4,5-dihydro-1H-pyrrolo[2,3-f]isoquinoline-3-carboxylic acid lactam] | 0.009 |
| Cc1ccc(-c2cc3c(cn2)CCc2c4c(n(C)c2-3)CC2(CNC2)NC4=O)cn1 [Example 151, 2-(3-Amino-azetidin-3-ylmethyl)-8-(6-methyl-pyridin-3-yl)-1-methyl-4,5-dihydro-1H-pyrrolo[2,3-f]isoquinoline-3-carboxylic acid lactam hydrochloride] | 0.035 |
| COc1ccc(-c2cc3c(cn2)CCc2c-3[nH]c3c2C(=O)N[C@@H]2CC[C@H]32)cc1 (racemic) [Example 50, (+)-2-(2-Amino-cyclobutyl)-8-(4-methoxy-phenyl)-4,5-dihydro-1H-pyrrolo[2,3-f]isoquinoline-3-carboxylic acid lactam] | 0.021 |

— patent US7838674B2, “Tetracyclic lactame derivatives” (Novartis AG, priority 2007, dated 2010)
